In article PMC6120190, “Identification of two distinct peptide-binding pockets in the SH3 domain of human mixed-lineage kinase 3” (The Journal of Biological Chemistry, 2018):
No end group written: not given here.

Tests used:
MLK3 SH3 domain = experiment: analytical size-exclusion chromatography of MLK3 SH3-MIP fusion proteins (oligomeric state); format: binding, human; conditions: Superdex 200 10/300 GL, 25 mM Tris-HCl, pH 7.4, 500 mM NaCl; for effect of mutation on binding to MLK3 SH3 (fusion proteins, gel filtration): 750 μg/200 μl (Fig. S4); for oligomeric state by size-exclusion chromatography: MIP(1–19) fusion 2 mg/200 μl, MIP(1–13) fusions 750 μg/200 μl
Source text: Two DNA fragments encoding the SH3 domain of MLK3 (UniProt entry Q16584), MLK3 SH3(41–105) and MLK3 SH3(44–103), and four fragments encoding SH3 domain-MIP fusions, MLK3 SH3(41–105)-MIP(1–19), MLK3 SH3(41–105)-MIP(1–13), MLK3 SH3(41–105)-MIP(1–13)W10A, and MLK3 SH3(41–105)-MIP(1–13)R12A, were commercially prepared as gBlocks Gene Fragments. One fragment encoding SH3 domain fused to an NS5A (UniProt entry A0A076MER2) peptide, MLK3 SH3(41–105)-NS5A(2325–2332), was created by amplifying MLK3 SH3(41–105) with T7 promoter primer and a reverse primer (see Table S1). The subsequent insert contained MLK3 SH3(41–105) with the NS5A fragment (aa 2325–2332) at the C terminus. All coding regions were codon-optimized for E. coli expression. DNA fragments were cleaved with NdeI and BamHI-HF (New England Biolabs) and subsequently ligated into a modified version of the pET14b expression vector where the N-terminal His6 tag is followed by a SUMO protease cleavage site. The resulting DNA constructs (verified by sequencing) were transformed into E. coli strain BL21 C41(DE3). Cells were grown at 37 °C in 2× YT medium, which was supplemented with either 50 μg/ml CB or 100 μg/ml ampicillin, protein expression was induced with 0.1–0.3 mM IPTG at an A600 nm of 0.6–0.7, and cells were cultured overnight at 22 °C. Cells were harvested by centrifugation; washed with 200 mM KCl, 50 mM Tris, pH 7.4; and lysed by sonication in 25 mM Tris, pH 7.4, 200 mM KCl, 10 mM MgCl2, 10% glycerol, 1% Triton X-100, 1 mM phenylmethylsulfonyl fluoride (PMSF). Clarified supernatant was loaded onto a 5-ml HisTrap^TM HP Ni-Sepharose column (GE Healthcare), and the column was washed with 25 mM Tris, pH 7.4, 500 mM NaCl supplemented with 10 and 25 mM imidazole. Protein was eluted in the same buffer, which was supplemented with 250 and 500 mM imidazole, and the fractions were pooled together. The His6-SUMO tag was cleaved with SUMO protease while dialyzing against 25 mM Tris, pH 7.4, 500 mM NaCl, 10 mM imidazole, and the tag was removed by loading the sample back onto a nickel column. Collected fractions containing purified protein were concentrated and injected onto an S-200 size-exclusion column (GE Healthcare) equilibrated with 25 mM Tris-HCl, pH 7.4, 500 mM NaCl. To confirm the purity, collected samples were analyzed by SDS-PAGE and detected with Coomassie Brilliant Blue staining. All purified proteins were concentrated and stored at −80 °C.
To determine oligomeric state of several MLK3 SH3 fusion proteins, samples were injected into a Superdex 200 10/300 GL size-exclusion chromatography column (GE Healthcare) in two independent experiments. Two samples, MLK3 SH3(41–105)-MIP(1–19) and MLK3 SH3(41–105), at 2 mg of protein/200-μl injection, were analyzed in the first experiment (Fig. S3). Three additional samples of MLK3 SH3 domain-MIP fusion proteins were analyzed in a second experiment by injecting 750 μg of protein in 200 μl: MLK3 SH3(41–105)-MIP(1–13), MLK3 SH3(41–105)-MIP(1–13)W10A, and MLK3 SH3(41–105)-MIP(1–13)R12A (Fig. S4). Prior to the injections, the column was equilibrated with 25 mM Tris-HCl, pH 7.4, 500 mM NaCl.
Figure S3. Comparison of apo vs peptide-bound MLK3 SH3. Gel filtration chromatography of MLK3 SH3 and MLK3 SH3-MIP(1-19) fusion using Superdex 200 10/300 GL. Both constructs were expressed and purified as His6-SUMO fusions and the tag cleaved with SUMO protease. […] PS corresponds to MW standards (kDa).
Figure S4. W10 and R12 in MIP are critical for intermolecular interaction with MLK3 SH3 in vitro. Three fusion proteins composed of MLK3 SH3(41-105) domain linked via its C-terminus to one of the MIP variant: MIP(1-13) (Blue), MIP(1-13)W10A (Red), or MIP(1-13)R12A (Green), and have been analyzed using gel filtration chromatography. Corresponding sequences of MIP variants are: […] (Blue), […] (Red), and […] (Green). […] The chromatogram corresponding to MLK3 SH3 (Orange) was scaled down by approximately 33%. […]

GST-MLK3 SH3 [1] = experiment: phage ELISA of phage-displayed MIP and variants on GST-MLK3 SH3; format: binding, human; conditions: original clone/MIP, anti-M13 mAb-HRP detection, experiments in duplicate, averaged
Experimental: Figure 1. […] The presence of virions in the supernatant was determined by coating the wells of the microtiter plate with an anti-M13 mAb (anti-M13 Ab). Virions, which were retained in the microtiter plate wells, were detected with anti-M13 mAb conjugated to HRP. […] See also Fig. S1.
Figure 2. […] The MIP sequence, NH2-[…]-COOH, was fused to the N terminus of the pIII capsid protein of bacteriophage M13 ([51]) to facilitate type 3 pentavalent display. Systematic alanine replacements in the peptide were generated by Kunkel mutagenesis ([11]); Ala-1 and Ala-14 were replaced with Val. […] The signal for binding of MIP (WT) to GST-MLK3 SH3 is set as 100%, and other values are normalized to it. […] See also Fig. S2.
Screens for peptide ligands were performed following a protocol published previously ([11]). […] After three rounds of affinity selection, individual phage clones were isolated, and their binding was evaluated via phage ELISA ([11]). […]
All constructs were generated via Kunkel mutagenesis ([11], [57], [58]) and facilitated type 3 (pentavalent) display. […] All constructs were verified by DNA sequencing, and phage clones were evaluated for their binding to the target (GST-MLK3 SH3) via phage ELISA ([11]). […]

GST-MLK1 SH3 [2] = experiment: specificity ELISA, MLK1; format: binding, human; conditions: biotinylated peptide ≈2 μM on NeutrAvidin; GST-SH3 0.15 μM, 1–1.5 h; anti-GST-HRP; triplicate (Fig. 8)
Experimental: (§1) Figure 8. Binding of MIP and NS5A peptides to SH3 domain of other members of MLK subfamily (MLK1–4). To determine whether MIP and NS5A can interact with SH3 domains of MLK1–4 proteins, the purified GST-MLK1–4 SH3 domains were incubated with biotinylated peptides, NS5A peptide ([…]-GGG-K-biotin), MIP ([…]-K-biotin), and MIP-R12A ([…]-K-biotin), immobilized on a NeutrAvidin-coated 96-well ELISA plate. Binding of SH3 domain was detected with anti-GST antibody conjugated to HRP. […] See also Fig. S6.
(§2) Two plasmids, gifts from Dr. Gerardo Morfini, University of Illinois at Chicago, encoding a GST protein fused to either the WT or mutant Y52A of the SH3 domain of MLK3 (UniProt entry Q16584; aa 43–104), respectively, between BamHI and EcoRI sites, were transformed into the Escherichia coli strain Rosetta(DE3)pLysS. DNA fragments encoding the SH3 domain of MLK1 (UniProt entry P80192; aa 52–116), MLK2 (UniProt entry Q02779; aa 16–81), and MLK4 (UniProt entry Q5TCX8; aa 38–102) were commercially prepared as gBlocks® Gene Fragments (Integrated DNA Technologies, Inc.). All coding regions were codon-optimized for E. coli expression. DNA fragments were cleaved with BamHI-HF® and EcoRI-HF® (New England Biolabs) and subsequently ligated into pGex-2T vector. […]

GST-MLK2 SH3 = experiment: specificity ELISA, MLK2; format: binding, human; conditions: biotinylated peptide ≈2 μM on NeutrAvidin; GST-SH3 0.15 μM, 1–1.5 h; anti-GST-HRP; triplicate (Fig. 8)
Experimental: as §1, §2

GST-MLK3 SH3 [3] = experiment: specificity ELISA, MLK3; format: binding, human; conditions: biotinylated peptide ≈2 μM on NeutrAvidin; GST-SH3 0.15 μM, 1–1.5 h; anti-GST-HRP; triplicate (Fig. 8)
Experimental: as §1, §2

GST-MLK4 SH3 [4] = experiment: specificity ELISA, MLK4; format: binding, human; conditions: biotinylated peptide ≈2 μM on NeutrAvidin; GST-SH3 0.15 μM, 1–1.5 h; anti-GST-HRP; triplicate (Fig. 8)
Experimental: as §1, §2

MLK3 SH3 domain Y52A = experiment: binding to Y52A mutant of MLK3 SH3; set-up: species or system human; conditions: data not shown
Source text: Two plasmids, gifts from Dr. Gerardo Morfini, University of Illinois at Chicago, encoding a GST protein fused to either the WT or mutant Y52A of the SH3 domain of MLK3 (UniProt entry Q16584; aa 43–104), respectively, between BamHI and EcoRI sites, were transformed into the Escherichia coli strain Rosetta(DE3)pLysS. DNA fragments encoding the SH3 domain of MLK1 (UniProt entry P80192; aa 52–116), MLK2 (UniProt entry Q02779; aa 16–81), and MLK4 (UniProt entry Q5TCX8; aa 38–102) were commercially prepared as gBlocks® Gene Fragments (Integrated DNA Technologies, Inc.). All coding regions were codon-optimized for E. coli expression. DNA fragments were cleaved with BamHI-HF® and EcoRI-HF® (New England Biolabs) and subsequently ligated into pGex-2T vector. The resulting DNA constructs, pGex-MLK1 SH3, pGex-MLK2 SH3, and pGex-MLK4 SH3 (verified by sequencing) were transformed into E. coli strain BL21(DE3).

GST-MLK3 SH3(43–104) = target: T1, GST-MLK3 SH3(43–104) (human, UniProt Q16584 43-104); experiment: ELISA; conditions: both partners purified
T1 construct: also called GST-MLK3 SH3-WT; SH3 WT
T1 sequence (looked up): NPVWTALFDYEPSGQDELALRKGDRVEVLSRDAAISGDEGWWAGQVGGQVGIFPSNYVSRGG

GST-MLK1 SH3 [5] = target: T2, GST-MLK1 SH3 (UniProt P80192 52-116); experiment: ELISA; conditions: both partners purified
T2 construct: also called SH3 domain of MLK1
T2 sequence (looked up): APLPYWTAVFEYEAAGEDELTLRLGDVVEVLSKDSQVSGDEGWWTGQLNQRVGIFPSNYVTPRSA

GST-MLK4 SH3 [6] = target: T3, GST-MLK4 SH3 (UniProt Q5TCX8 38-102); experiment: ELISA; conditions: both partners purified
T3 construct: also called SH3 domain of MLK4
T3 sequence (looked up): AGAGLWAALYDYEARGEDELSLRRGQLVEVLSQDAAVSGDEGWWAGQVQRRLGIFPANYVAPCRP

AIRINPNGTASRQ [MIP(1–13)W10A, SH3 domain linked via its C terminus to MIP(1–13)W10A]
effect of mutation on binding to MLK3 SH3 (fusion proteins, gel filtration) (MLK3 SH3 domain): loss of binding to MLK3 SH3
oligomeric state by size-exclusion chromatography (MLK3 SH3 domain): elute at a volume corresponding to the size of a monomeric fusion protein
oligomeric state by size-exclusion chromatography (MLK3 SH3 domain; listed as MIP(1-13)W10A): elute at fraction corresponding to the size of a monomeric fusion protein

AIRINPNGTWSAQ [MIP(1–13)R12A, SH3 domain linked via its C terminus to MIP(1–13)R12A]
effect of mutation on binding to MLK3 SH3 (fusion proteins, gel filtration) (MLK3 SH3 domain): loss of binding to MLK3 SH3
oligomeric state by size-exclusion chromatography (MLK3 SH3 domain): elute at a volume corresponding to the size of a monomeric fusion protein
oligomeric state by size-exclusion chromatography (MLK3 SH3 domain; listed as MIP(1-13)R12A): elute at fraction corresponding to the size of a monomeric fusion protein

AIRINPNGTWSRQ [MLK3 SH3(41–105)-MIP(1–13), SH3 domain linked via its C terminus to truncated WT ligand]
oligomeric state by size-exclusion chromatography (MLK3 SH3 domain): eluted as a higher order oligomer

H-IRINPNGTWSRQ-OH [single clone displaying a 12-mer peptide from ANL7 library]
binding to GST-MLK3 SH3 in phage ELISA (GST-MLK3 SH3 [1]): bound to the wildtype (WT) form of the MLK3 SH3 domain

KKAPTPPPRRRRGGGK [NS5A peptide, reference compound]
binding to MLK1 SH3 (GST-MLK1 SH3 [2]): could bind
binding to MLK2 SH3 (GST-MLK2 SH3): could bind
binding to MLK3 SH3 (GST-MLK3 SH3 [3]): could bind
binding to MLK4 SH3 (GST-MLK4 SH3 [4]): could bind
effect of SH3 mutation Y52A on peptide binding (MLK3 SH3 domain Y52A): disrupts binding

B1: biotinylated MIP (AIRINPNGTWSRQAETVES-K-biotin) (peptide)
peptide: AIRINPNGTWSRQAETVESK
modifications: biotin on the added C-terminal K
notes: also called immobilized MIP; biotinylated MIP peptide; source: synthetic peptide
binding result (GST-MLK3 SH3(43–104)): binds
binding result (GST-MLK1 SH3 [5]): binds
binding result (GST-MLK4 SH3 [6]): binds
